Format in all cases: biochemical
One experiment concerns the target T1, PI3Kγ (Homo sapiens, UniProt P48736).
T1 construct: gene PIK3CG
As to the kind of experiment: ADP-Glo lipid kinase assay. The text has this: ADP-Glo lipid kinase assay on PI3Kγ | IC50 of ZDQ-0620 against PI3K kinase in vitro.

The target of the next experiment is T2, PI3Kβ (Homo sapiens, UniProt P42338).
T2 construct: gene PIK3CB
As to the kind of experiment: ADP-Glo lipid kinase assay; supported by CETSA in HCT116 cells (weaker than PI3Kα). An excerpt: ADP-Glo lipid kinase assay; supported by CETSA in HCT116 cells (weaker than PI3Kα) on PI3Kβ | IC50 of ZDQ-0620 against PI3K kinase in vitro.

The next experiment has as its target T3, PI3Kδ (Homo sapiens, UniProt O00329).
T3 construct: gene PIK3CD
T3 sequence (O00329 1-1044): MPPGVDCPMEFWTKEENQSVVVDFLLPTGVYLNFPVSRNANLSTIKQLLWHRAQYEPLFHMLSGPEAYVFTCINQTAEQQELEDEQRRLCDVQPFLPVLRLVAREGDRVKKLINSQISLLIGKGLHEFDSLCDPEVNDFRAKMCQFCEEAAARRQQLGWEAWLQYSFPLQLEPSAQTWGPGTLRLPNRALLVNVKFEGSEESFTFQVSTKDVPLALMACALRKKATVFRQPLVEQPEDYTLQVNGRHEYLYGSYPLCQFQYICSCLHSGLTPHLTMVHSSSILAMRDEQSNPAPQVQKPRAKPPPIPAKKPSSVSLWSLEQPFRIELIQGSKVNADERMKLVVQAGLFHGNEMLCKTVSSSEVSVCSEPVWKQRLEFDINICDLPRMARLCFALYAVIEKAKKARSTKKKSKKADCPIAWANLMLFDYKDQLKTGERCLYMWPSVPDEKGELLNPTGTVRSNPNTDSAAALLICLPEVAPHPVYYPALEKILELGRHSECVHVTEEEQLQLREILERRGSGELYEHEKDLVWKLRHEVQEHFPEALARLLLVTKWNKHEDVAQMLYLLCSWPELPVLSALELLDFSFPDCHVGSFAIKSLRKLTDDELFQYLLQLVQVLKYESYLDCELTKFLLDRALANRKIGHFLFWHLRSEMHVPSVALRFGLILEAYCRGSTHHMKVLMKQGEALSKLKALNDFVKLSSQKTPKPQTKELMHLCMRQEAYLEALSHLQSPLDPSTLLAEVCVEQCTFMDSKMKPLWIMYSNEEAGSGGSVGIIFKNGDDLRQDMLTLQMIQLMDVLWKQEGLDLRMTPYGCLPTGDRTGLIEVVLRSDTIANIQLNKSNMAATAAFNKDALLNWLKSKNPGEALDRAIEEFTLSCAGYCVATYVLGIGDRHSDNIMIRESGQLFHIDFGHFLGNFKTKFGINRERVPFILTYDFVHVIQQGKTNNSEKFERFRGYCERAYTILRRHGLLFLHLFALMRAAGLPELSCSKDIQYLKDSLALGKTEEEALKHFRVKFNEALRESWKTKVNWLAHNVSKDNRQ
As to the kind of experiment: ADP-Glo lipid kinase assay. The text has this: ADP-Glo lipid kinase assay on PI3Kδ | IC50 of ZDQ-0620 against PI3K kinase in vitro.

The next experiment deals with T4, PI3Kα (Homo sapiens, UniProt P42336).
T4 construct: gene PIK3CA
As to the kind of experiment: ADP-Glo lipid kinase assay; supported by CETSA/ITDRF-CETSA in HCT116 cells.

T2 sequence (P42338 whole entry): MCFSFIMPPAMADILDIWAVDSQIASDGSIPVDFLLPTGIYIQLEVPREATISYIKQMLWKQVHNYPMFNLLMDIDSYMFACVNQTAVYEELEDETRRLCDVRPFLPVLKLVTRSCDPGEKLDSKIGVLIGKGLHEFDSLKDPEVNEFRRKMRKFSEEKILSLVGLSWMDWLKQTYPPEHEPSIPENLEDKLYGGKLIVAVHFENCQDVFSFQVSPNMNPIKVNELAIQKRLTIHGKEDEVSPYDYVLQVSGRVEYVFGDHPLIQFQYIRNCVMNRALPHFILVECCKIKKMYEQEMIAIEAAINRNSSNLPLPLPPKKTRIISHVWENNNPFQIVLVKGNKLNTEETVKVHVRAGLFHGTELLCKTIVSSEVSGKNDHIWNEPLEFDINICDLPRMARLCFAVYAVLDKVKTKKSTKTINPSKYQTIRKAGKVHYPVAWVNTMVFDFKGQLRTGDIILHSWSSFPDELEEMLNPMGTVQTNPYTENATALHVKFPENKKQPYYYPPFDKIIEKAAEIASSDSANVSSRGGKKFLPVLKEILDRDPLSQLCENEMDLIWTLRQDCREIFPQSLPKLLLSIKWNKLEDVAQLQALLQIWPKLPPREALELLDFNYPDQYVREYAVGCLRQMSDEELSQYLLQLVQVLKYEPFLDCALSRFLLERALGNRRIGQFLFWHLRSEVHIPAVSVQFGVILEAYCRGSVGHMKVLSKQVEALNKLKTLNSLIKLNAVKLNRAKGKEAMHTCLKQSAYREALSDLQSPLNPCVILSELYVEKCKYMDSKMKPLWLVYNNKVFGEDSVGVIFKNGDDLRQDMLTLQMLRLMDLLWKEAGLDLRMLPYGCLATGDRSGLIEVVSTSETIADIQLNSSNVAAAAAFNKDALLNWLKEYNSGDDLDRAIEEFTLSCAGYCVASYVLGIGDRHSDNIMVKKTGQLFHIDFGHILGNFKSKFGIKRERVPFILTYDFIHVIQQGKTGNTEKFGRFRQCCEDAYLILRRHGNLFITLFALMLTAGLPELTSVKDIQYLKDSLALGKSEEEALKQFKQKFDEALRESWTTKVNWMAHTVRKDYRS
T1 sequence (P48736 whole entry): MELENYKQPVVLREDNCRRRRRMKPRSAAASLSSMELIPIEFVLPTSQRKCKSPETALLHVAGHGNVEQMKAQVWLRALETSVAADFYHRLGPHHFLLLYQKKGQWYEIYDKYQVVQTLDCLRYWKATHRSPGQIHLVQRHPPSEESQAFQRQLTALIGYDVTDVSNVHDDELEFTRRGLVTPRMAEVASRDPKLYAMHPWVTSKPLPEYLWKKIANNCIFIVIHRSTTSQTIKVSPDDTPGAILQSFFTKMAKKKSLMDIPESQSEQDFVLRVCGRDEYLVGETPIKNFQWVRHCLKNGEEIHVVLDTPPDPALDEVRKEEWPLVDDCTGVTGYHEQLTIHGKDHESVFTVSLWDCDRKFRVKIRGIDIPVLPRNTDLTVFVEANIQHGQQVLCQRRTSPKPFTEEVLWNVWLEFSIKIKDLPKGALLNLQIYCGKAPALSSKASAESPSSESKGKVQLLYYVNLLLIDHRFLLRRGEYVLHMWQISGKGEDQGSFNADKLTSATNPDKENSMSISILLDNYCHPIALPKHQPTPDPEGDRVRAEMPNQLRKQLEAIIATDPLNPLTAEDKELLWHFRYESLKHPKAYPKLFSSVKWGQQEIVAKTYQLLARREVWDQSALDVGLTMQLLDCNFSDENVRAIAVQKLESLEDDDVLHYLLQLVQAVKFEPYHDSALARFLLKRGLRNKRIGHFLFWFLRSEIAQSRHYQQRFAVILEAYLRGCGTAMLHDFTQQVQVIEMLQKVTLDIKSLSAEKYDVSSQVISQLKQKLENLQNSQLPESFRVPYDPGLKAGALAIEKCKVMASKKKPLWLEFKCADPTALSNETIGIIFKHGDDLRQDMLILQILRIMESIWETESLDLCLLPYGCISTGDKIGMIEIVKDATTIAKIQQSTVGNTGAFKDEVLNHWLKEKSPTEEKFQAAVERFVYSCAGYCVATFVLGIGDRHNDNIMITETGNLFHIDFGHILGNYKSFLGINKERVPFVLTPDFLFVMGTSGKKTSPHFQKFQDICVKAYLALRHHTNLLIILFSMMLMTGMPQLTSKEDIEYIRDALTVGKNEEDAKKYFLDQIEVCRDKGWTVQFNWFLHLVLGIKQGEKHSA
T4 sequence (P42336 whole entry): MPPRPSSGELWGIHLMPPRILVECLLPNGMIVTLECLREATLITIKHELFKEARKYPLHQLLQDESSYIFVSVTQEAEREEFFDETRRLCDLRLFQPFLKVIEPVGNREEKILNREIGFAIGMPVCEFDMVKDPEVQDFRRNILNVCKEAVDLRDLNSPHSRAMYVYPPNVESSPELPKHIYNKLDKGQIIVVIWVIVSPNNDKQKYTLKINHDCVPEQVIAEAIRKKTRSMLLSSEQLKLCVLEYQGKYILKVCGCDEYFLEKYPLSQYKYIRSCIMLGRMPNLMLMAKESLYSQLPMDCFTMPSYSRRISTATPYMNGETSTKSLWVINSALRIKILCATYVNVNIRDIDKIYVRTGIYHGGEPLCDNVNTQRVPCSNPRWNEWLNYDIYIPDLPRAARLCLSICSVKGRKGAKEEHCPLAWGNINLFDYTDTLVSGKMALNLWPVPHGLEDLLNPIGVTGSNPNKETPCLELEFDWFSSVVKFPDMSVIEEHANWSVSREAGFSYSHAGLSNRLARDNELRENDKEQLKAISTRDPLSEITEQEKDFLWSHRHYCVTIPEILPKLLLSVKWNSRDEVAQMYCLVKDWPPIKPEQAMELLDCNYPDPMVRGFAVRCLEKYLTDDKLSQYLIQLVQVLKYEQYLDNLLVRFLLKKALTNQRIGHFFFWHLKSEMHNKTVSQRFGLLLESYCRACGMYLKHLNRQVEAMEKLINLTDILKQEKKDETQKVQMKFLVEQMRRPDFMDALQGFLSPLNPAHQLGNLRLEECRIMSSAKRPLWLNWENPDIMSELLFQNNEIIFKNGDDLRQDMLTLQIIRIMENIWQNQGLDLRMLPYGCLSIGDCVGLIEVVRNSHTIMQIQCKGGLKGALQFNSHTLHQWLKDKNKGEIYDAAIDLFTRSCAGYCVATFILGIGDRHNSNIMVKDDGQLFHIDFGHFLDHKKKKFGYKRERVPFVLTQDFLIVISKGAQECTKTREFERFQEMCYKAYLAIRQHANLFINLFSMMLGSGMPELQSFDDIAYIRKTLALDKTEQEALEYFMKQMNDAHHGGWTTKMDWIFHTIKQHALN

Turning to `COc1ncc(-c2ccc3c(c2)N(CCCN2CCOCC2)C(=O)CO3)cc1NS(=O)(=O)c1ccc(F)cc1F` [ZDQ-0620, 2,4-difluoro-N-(2-methoxy-5-(4-(3-morpholinopropyl)-3-oxo-3,4-dihydro-2H-benzo[b][1,4]oxazin-6-yl)pyridin-3-yl)benzenesulfonamide], the IC50 against PI3Kγ came out at 55 nM; against PI3Kβ, 93 nM; against PI3Kδ, 152 nM; against PI3Kα, 0.5 nM.
